Results as given in patent EP0595557A1, “New substituted azetidinones as anti-inflammatory and antidegenerative agents” (MERCK & CO. INC., priority 1992, dated 1994).

Target: T1, Human Polymorphonuclear Leukocyte Elastase (Homo sapiens, UniProt P08246)
T1 construct: Crude extract of human polymorphonuclear leukocytes (PMN) containing elastase activity; from tissue; host or cells: human polymorphonuclear leukocytes (crude extract)
T1 sequence (P08246 30-267): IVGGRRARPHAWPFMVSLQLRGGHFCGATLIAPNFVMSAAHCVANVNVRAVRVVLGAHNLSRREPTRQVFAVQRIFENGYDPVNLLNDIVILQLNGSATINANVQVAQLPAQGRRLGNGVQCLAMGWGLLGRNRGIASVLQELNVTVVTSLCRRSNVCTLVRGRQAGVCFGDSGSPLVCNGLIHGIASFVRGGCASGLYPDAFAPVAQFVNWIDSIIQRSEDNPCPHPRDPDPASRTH
Test: Enzyme assay for inhibition of human polymorphonuclear leukocyte elastase via hydrolysis of Boc-AAPAN or Boc-AAPVN
Format: biochemical
Settings: pH 7.5, second order rate constant for inactivation of the enzyme, expressed to the nearest thousand, read-out: Kobs/[I]
Method in brief: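 Crude human PMN extract as enzyme source, with 0.2 mM Boc-AAPAN in 0.05M TES buffer pH 7.5. Inhibitors in DMSO were added to substrate before the extract, and rate was followed as ΔOD/min at 410 mµ. Values are kobs/I, the second-order inactivation rate constant (per mole per second).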

Compound	kinact/KI [M⁻¹ s⁻¹]
CCC[C@@H](NC(=O)N1C(=O)C(CC)(CC)[C@@H]1Oc1ccc(C(=O)N[C@@H](CCCCN)C(=O)O)cc1)c1ccc(C)cc1 [Compound 184]	755000
CCC[C@@H](NC(=O)N1C(=O)C(CC)(CC)[C@@H]1Oc1ccc(C(=O)N(C)CCN(C)CC2CC2)cc1)c1ccc(C)cc1 [Compound 185]	1.79e+06
CCC[C@@H](NC(=O)N1C(=O)C(CC)(CC)[C@@H]1Oc1ccc(C(=O)N(C)CC(c2ccccc2)N(C)C)cc1)c1ccc(C)cc1 (some centres unmarked) [Compound 186]	1.05e+06
CCC[C@@H](NC(=O)N1C(=O)C(CC)(CC)[C@@H]1Oc1ccc(C(=O)N(C)C)cc1)c1ccc(C)cc1 [Compound 187]	1.75e+06
CCC[C@@H](NC(=O)N1C(=O)C(CC)(CC)[C@@H]1Oc1ccc(C(=O)N(C)Cc2ccccc2)cc1)c1ccc(C)cc1 [Compound 188]	1.84e+06
CCC[C@@H](NC(=O)N1C(=O)C(CC)(CC)[C@@H]1Oc1ccc(C(=O)N(C)C2CCCN(Cc3ccccc3)C2)cc1)c1ccc(C)cc1 (some centres unmarked) [Compound 189]	1.88e+06
CCC[C@@H](NC(=O)N1C(=O)C(CC)(CC)[C@@H]1Oc1ccc(C(=O)NOCc2ccccc2)cc1)c1ccc(C)cc1 [Compound 190]	1.8e+06
CCC[C@@H](NC(=O)N1C(=O)C(CC)(CC)[C@@H]1Oc1ccc(C(=O)N(CCN(C)Cc2ccccc2)Cc2cccnc2)cc1)c1ccc(C)cc1 [Compound 191]	2.54e+06
CCC[C@@H](NC(=O)N1C(=O)C(CC)(CC)[C@@H]1Oc1ccc(C(=O)N(C)CCN(C)Cc2ccc(OC)cc2)cc1)c1ccc(C)cc1 [Compound 192]	1.78e+06
CCC[C@@H](NC(=O)N1C(=O)C(CC)(CC)[C@@H]1Oc1ccc(C(=O)N(CCN(C)Cc2ccccc2)Cc2ccncc2)cc1)c1ccc(C)cc1 [Compound 193]	2.24e+06
CCC[C@@H](NC(=O)N1C(=O)C(CC)(CC)[C@@H]1Oc1ccc(C(=O)N(CCN(C)Cc2ccccc2)Cc2ccccn2)cc1)c1ccc(C)cc1 [Compound 194]	2.47e+06
CCC[C@@H](NC(=O)N1C(=O)C(CC)(CC)[C@@H]1Oc1ccc(C(=O)N(C)CCN(C)Cc2ccc(C)cc2C)cc1)c1ccc(C)cc1 [Compound 195]	1.12e+06
CCC[C@@H](NC(=O)N1C(=O)C(CC)(CC)[C@@H]1Oc1ccc(C(=O)N(C)CCN2CC(C)OC(C)C2)cc1)c1ccc(C)cc1 (some centres unmarked) [Compound 196]	1.53e+06
CCC[C@@H](NC(=O)N1C(=O)C(CC)(CC)[C@@H]1Oc1ccc(C(N)=O)cc1)c1ccc(C)cc1 [Compound 197]	1.64e+06
CCC[C@@H](NC(=O)N1C(=O)C(CC)(CC)[C@@H]1Oc1ccc(C(=O)NC)cc1)c1ccc(C)cc1 [Compound 198]	1.82e+06
CCC[C@@H](NC(=O)N1C(=O)C(CC)(CC)[C@@H]1Oc1ccc(C(=O)N2CCOCC2)cc1)c1ccc(C)cc1 [Compound 199]	2.38e+06
CCC[C@@H](NC(=O)N1C(=O)C(CC)(CC)[C@@H]1Oc1ccc(C(=O)N2C[C@@H](C)O[C@@H](C)C2)cc1)c1ccc(C)cc1 [Compound 200]	1.84e+06
CCCCNC(=O)c1ccc(OC2N(C(=O)NC(CCC)c3ccc(C)cc3)C(=O)C2(CC)CC)cc1 (centres unmarked) [Compound 201]	2.46e+06
CCC[C@@H](NC(=O)N1C(=O)C(CC)(CC)[C@@H]1Oc1ccc(C(=O)N(C)CCN(C)C(=NC#N)Nc2ccccc2)cc1)c1ccc(C)cc1 [Compound 202]	1.76e+06
CCC[C@@H](NC(=O)N1C(=O)C(CC)(CC)[C@@H]1Oc1ccc(C(=O)N(C)CCN(C)Cc2cccc(F)c2)cc1)c1ccc(C)cc1 [Compound 203]	1.26e+06
CCC[C@@H](NC(=O)N1C(=O)C(CC)(CC)[C@@H]1Oc1ccc(C(=O)N(C)CCN(C)Cc2ccccc2Cl)cc1)c1ccc(C)cc1 [Compound 204]	1.59e+06
CCC[C@@H](NC(=O)N1C(=O)C(CC)(CC)[C@@H]1Oc1ccc(C(=O)N(C)CCN(C)Cc2cccc(OC)c2)cc1)c1ccc(C)cc1 [Compound 205]	1.91e+06
CCC[C@@H](NC(=O)N1C(=O)C(CC)(CC)[C@@H]1Oc1ccc(C(=O)N(C)CCN(C)Cc2cc(OC)cc(OC)c2)cc1)c1ccc(C)cc1 [Compound 206]	1.74e+06
CCC[C@@H](NC(=O)N1C(=O)C(CC)(CC)[C@@H]1Oc1ccc(C(=O)N2CCc3cc(OC)c(OC)cc3C2)cc1)c1ccc(C)cc1 [Compound 207]	2.7e+06
CCC[C@@H](NC(=O)N1C(=O)C(CC)(CC)[C@@H]1Oc1ccc(C(=O)N(C)C2CCN(Cc3ccccc3)CC2)cc1)c1ccc(C)cc1 [Compound 208]	1.95e+06
CCC[C@@H](NC(=O)N1C(=O)C(CC)(CC)[C@@H]1Oc1ccc(C(=O)NCCCC[C@H](N)C(=O)O)cc1)c1ccc(C)cc1 [Compound 209]	929000
CCC[C@@H](NC(=O)N1C(=O)C(CC)(CC)[C@@H]1Oc1ccc(C(=O)N(C)CCN(C)C2C3CC4CC(C3)CC2C4)cc1)c1ccc(C)cc1 (some centres unmarked) [Compound 210]	2.13e+06

Compound	kinact/KI [M⁻¹ s⁻¹]
CCC[C@@H](NC(=O)N1C(=O)C(CC)(CC)[C@@H]1Oc1ccc(C(=O)N(C)C2CCNCC2)cc1)c1ccc(C)cc1 [Compound 211]	85000
CCC[C@@H](NC(=O)N1C(=O)C(CC)(CC)[C@@H]1Oc1ccc(C(=O)N2CC3CC2CN3C)cc1)c1ccc(C)cc1 (some centres unmarked) [Compound 212]	860000
CCC[C@@H](NC(=O)N1C(=O)C(CC)(CC)[C@@H]1Oc1ccc(C(=O)N(C)CC(=O)O)cc1)c1ccc(C)cc1 [Compound 213]	984000
CCC[C@@H](NC(=O)N1C(=O)C(CC)(CC)[C@@H]1Oc1ccc(C(=O)N(C)CCCN(C)CC)cc1)c1ccc(C)cc1 [Compound 214]	1.1e+06
CCC[C@@H](NC(=O)N1C(=O)C(CC)(CC)[C@@H]1Oc1ccc(C(=O)N(C)C2CCN(C)CC2)cc1)c1ccc(C)cc1 [Compound 215]	1.28e+06
CCC[C@@H](NC(=O)N1C(=O)C(CC)(CC)[C@@H]1Oc1ccc(C(=O)N(C)C2CCN(CCC)CC2)cc1)c1ccc(C)cc1 [Compound 216]	1.31e+06
CCC[C@@H](NC(=O)N1C(=O)C(CC)(CC)[C@@H]1Oc1ccc(C(=O)N(C)C2CCN(CC)CC2)cc1)c1ccc(C)cc1 [Compound 217]	1.42e+06
CCC[C@@H](NC(=O)N1C(=O)C(CC)(CC)[C@@H]1Oc1ccc(C(=O)N(C)CC(C)N(C)Cc2ccccc2)cc1)c1ccc(C)cc1 (some centres unmarked) [Compound 218]	2.12e+06
CCC[C@@H](NC(=O)N1C(=O)C(CC)(CC)[C@@H]1Oc1ccc(C(=O)N(C)CC(C)N(C)C)cc1)c1ccc(C)cc1 (some centres unmarked) [Compound 219]	1.59e+06
CCC[C@@H](NC(=O)N1C(=O)C(CC)(CC)[C@@H]1Oc1ccc(C(=O)N(C)CCN(C)C2CC3CCC2C3)cc1)c1ccc(C)cc1 (some centres unmarked) [Compound 220]	1.87e+06
CCC[C@@H](NC(=O)N1C(=O)C(CC)(CC)[C@@H]1Oc1ccc(C(=O)N(C)CCNC2C3CC4CC(C3)CC2C4)cc1)c1ccc(C)cc1 (some centres unmarked) [Compound 221]	3.01e+06
CCC[C@@H](NC(=O)N1C(=O)C(CC)(CC)[C@@H]1Oc1ccc(C(=O)N(C)CCN(C)C2CCC3CC2C3(C)C)cc1)c1ccc(C)cc1 (some centres unmarked) [Compound 222]	2.29e+06
CCC[C@@H](NC(=O)N1C(=O)C(CC)(CC)[C@@H]1Oc1ccc(C(=O)N(C)CCN(C)C2CCC3CCC2C3)cc1)c1ccc(C)cc1 (some centres unmarked) [Compound 223]	2.58e+06
CCC[C@@H](NC(=O)N1C(=O)C(CC)(CC)[C@@H]1Oc1ccc(C(=O)N(C)CCN(C)C2=CCCCC2)cc1)c1ccc(C)cc1 [Compound 225]	1.84e+06
C=CC(C)(C)NCCN(C)C(=O)c1ccc(O[C@@H]2N(C(=O)N[C@H](CCC)c3ccc(C)cc3)C(=O)C2(CC)CC)cc1 [Compound 226]	1.31e+06
CCC[C@@H](NC(=O)N1C(=O)C(CC)(CC)[C@@H]1Oc1ccc(C(=O)N2CCC[C@H]2C(N)=O)cc1)c1ccc(C)cc1 [Compound 227]	931000
CCC[C@@H](NC(=O)N1C(=O)C(CC)(CC)[C@@H]1Oc1ccc(C(=O)N2CCCCC2CO)cc1)c1ccc(C)cc1 (some centres unmarked) [Compound 228]	50000
CCC[C@@H](NC(=O)N1C(=O)C(CC)(CC)[C@@H]1Oc1ccc(C(=O)N2CCC(N(C)C)C2)cc1)c1ccc(C)cc1 (some centres unmarked) [Compound 229]	1.34e+06
C=CCN(CCN(C)C(=O)c1ccc(O[C@@H]2N(C(=O)N[C@H](CCC)c3ccc(C)cc3)C(=O)C2(CC)CC)cc1)C(C)(C)C=C [Compound 231]	925000
CCC[C@@H](NC(=O)N1C(=O)C(CC)(CC)[C@@H]1Oc1ccc(C(=O)N(C)CCN(C)C2CCC(CC)CC2)cc1)c1ccc(C)cc1 (some centres unmarked) [Compound 232]	2.48e+06
CCC[C@@H](NC(=O)N1C(=O)C(CC)(CC)[C@@H]1Oc1ccc(C(=O)N2CCN(c3ccc(F)cc3)CC2)cc1)c1ccc(C)cc1 [Compound 243]	7.49e+06
CCC[C@@H](NC(=O)N1C(=O)C(CC)(CC)[C@@H]1Oc1ccc(C(=O)N2CCN(c3cccc(Cl)c3)CC2)cc1)c1ccc(C)cc1 [Compound 244]	2.45e+06
CCC[C@@H](NC(=O)N1C(=O)C(CC)(CC)[C@@H]1Oc1ccc(C(=O)N2CCN(c3ccccc3)CC2)cc1)c1ccc(C)cc1 [Compound 245]	5.28e+06
CCC[C@@H](NC(=O)N1C(=O)C(CC)(CC)[C@@H]1Oc1ccc(C(=O)N2CCN(Cc3ccccc3)CC2)cc1)c1ccc(C)cc1 [Compound 246]	5.17e+06
CCC[C@@H](NC(=O)N1C(=O)C(CC)(CC)[C@@H]1Oc1ccc(C(=O)N2CCNCC2)cc1)c1ccc(C)cc1 [Compound 247, [S-(R*,S*)]-2-[4-[[(4-Piperazin-1-yl)carbonyl]phenoxy] -((3,3-diethyl-N-[1-(4-methylphenyl)butyl]-4-oxo-1-azetidinecarboxamide]	1.1e+06
CCC[C@@H](NC(=O)N1C(=O)C(CC)(CC)[C@@H]1Oc1ccc(C(=O)N2CCN(C(C)C)CC2)cc1)c1ccc(C)cc1 [Compound 248]	2.39e+06
